According to article PMC9293909 (Nature Communications, 2022):
Several values for one entry are separate records, joined by “and”; a condition that tells them apart may be missing. Identical values can stand only once.

Legend:
[1] = target: T1, rA3R (Rattus norvegicus, UniProt P28647); assay: cAMP inhibition at rA3R (Flp-In-CHO); type: cell-based; settings: for Range rA3R: range of response as percentage of response to 10 μM forskolin
T1 construct: expressed in transfected cells; host or cells: Flp-In-CHO (ThermoFisher R75807), pcDNA5/FRT
T1 sequence (P28647 1-320): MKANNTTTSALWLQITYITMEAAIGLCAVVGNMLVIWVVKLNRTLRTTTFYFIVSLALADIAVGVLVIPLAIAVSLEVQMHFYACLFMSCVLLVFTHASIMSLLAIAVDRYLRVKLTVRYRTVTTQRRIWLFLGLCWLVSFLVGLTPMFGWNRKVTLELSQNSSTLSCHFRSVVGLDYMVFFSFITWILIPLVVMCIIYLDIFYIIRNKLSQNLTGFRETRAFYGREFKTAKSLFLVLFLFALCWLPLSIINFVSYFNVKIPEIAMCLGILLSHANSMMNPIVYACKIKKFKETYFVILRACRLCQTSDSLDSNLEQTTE
Source text: Cell lines were maintained using standard subculturing routines as guided by the European Collection of Cell Culture (ECACC) and checked annually for mycoplasma infection using an EZ-PCR mycoplasma test kit from Biological Industries (Kibbutz Beit-Haemek, Israel). To investigate the signalling properties of the rat A3R (rA3R) and mutants of the human A1R (hA1R), stable cell lines were generated using Flp-In-CHO cells (ThermoFisher - R75807). Untagged hA1R from sigNanoLuciferase (Nluc)-A1R in pcDNA3.1+ and untagged rA3R from sigNluc-A3R in pcDNA3.1 + (both gifted by Dr Steve Briddon (University of Nottingham)) were cloned into the pcDNA5/FRT expression vector (Thermo Fisher Scientific). Mutations within the hA1R were made using the QuikChange Lightening Site-Directed Mutagenesis Kit (Agilent Technologies) in accordance with the manufacturer’s instructions. Constructs for generating Goa/b interfering and scrambled peptides were generated by PCR and cloned into the BamHI/HindIII site of pcDNA3.1- as described in Gilchrist et al.[60],. Prior to the initiator codon a Kozak sequence was included for enhanced translation. The peptide sequences used were: for Goa […], for Gob […], and for the scrambled peptide […] was used. Constructs were sequenced to confirm fidelity. Flp-In-CHO cells were generated through co-transfection of the cell line with pcDNA5/FRT expression vector (Thermo Fisher Scientific) containing the WT or mutant hA1R, or rA3R, and the Flp recombinase expressing plasmid, pOG44 (Thermo Fisher Scientific), in accordance with the manufacturer’s instructions. […] CHO cell lines expressing ARs of interest (including mutants of the hA1R) were routinely cultured in Ham’s F-12 nutrient mix supplemented with 10% foetal bovine serum (FBS), at 37 °C with 5% CO2, in a humidified atmosphere.

[2] = system: native presynaptic A1Rs, rat hippocampal slices; assay: Extracellular fEPSP recording, inhibition of excitatory synaptic transmission in hippocampal slices; type: cell-based
Procedure: Rats were kept on a 12-hour light-dark cycle with slices made 90 min after entering the light cycle. […] The brain was removed, cut down the midline and the two sides of the brain stuck down to a metal base plate using cyanoacrylate glue. […] Slices were stored at 34 °C for 1–6 h in aCSF (1 mM MgCl2, 2 mM CaCl2) before use.
A slice was transferred to the recording chamber, submerged in aCSF and perfused at 4–6 ml min^−1 (32 ± 0.5 °C). The slice was placed on a grid allowing perfusion above and below the tissue and all tubing was gastight (to prevent loss of oxygen). […] Field excitatory postsynaptic potentials (fEPSPs) were evoked with either an isolated pulse stimulator model 2100 (AM Systems, WA) or ISO-Flex (AMPI, Jerusalem, Israel). For fEPSPs a 10–20 min baseline was recorded at a stimulus intensity that gave 40-50% of the maximal response. […] For fEPSP slope, a 1 ms linear region after the fibre volley was measured. Extracellular recordings were made independently on two electrophysiology rigs.
Statistical significance was tested as indicated in the text using paired or unpaired two-tailed t-tests or one-way or two-way ANOVAs with repeated measures (RM) as appropriate. Bonferroni corrections for multiple comparisons were performed. All in vitro cell signalling assay data was analysed using Prism 8.4 (Graphpad software, San Diego, CA), with all concentration-response curves being fitted using a 3 parameter logistic equation to calculate response range and IC50. All cAMP data was normalised to a forskolin concentration-response curve ran in parallel to each assay.

[3] = target: T2, hA1R (Homo sapiens, UniProt P30542); assay: Radioligand displacement of [3H]-DPCPX, CHO-K1-hA1R membranes; type: binding; design: expressed in transfected cells; [3H]DPCPX binding, agonist displacement (Fig. 1bii): unit not given here; settings: for [3H]DPCPX binding, agonist displacement (Fig. 1bii): individual repeats and mean
T2 sequence (P30542 1-326): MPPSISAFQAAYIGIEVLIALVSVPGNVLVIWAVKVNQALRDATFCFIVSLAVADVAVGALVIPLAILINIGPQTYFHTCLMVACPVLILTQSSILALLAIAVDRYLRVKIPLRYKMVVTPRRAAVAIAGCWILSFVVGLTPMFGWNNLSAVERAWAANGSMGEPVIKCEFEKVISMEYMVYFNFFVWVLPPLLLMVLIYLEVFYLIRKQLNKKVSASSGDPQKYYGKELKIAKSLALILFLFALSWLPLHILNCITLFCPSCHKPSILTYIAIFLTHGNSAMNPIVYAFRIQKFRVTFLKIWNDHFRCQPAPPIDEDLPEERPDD
Procedure: Radioligand displacement assays were conducted using crude membrane preparations (100 μg protein per tube) acquired from homogenisation of CHO-K1-hA1R cells in ice-cold buffer (2 mM MgCl2, 20 mM HEPES, pH 7.4). […] Non-specific binding was determined in the presence of 10 μM DPCPX. Membrane incubations were conducted in Sterilin™ scintillation vials (Thermo Fisher Scientific; Wilmington, Massachusetts, USA) for 60 min at room temperature. Free radioligand was separated from bound radioligand by filtration through Whatman® glass microfiber GF/B 25 mm filters (Sigma-Aldrich). Each filter was then placed in a Sterilin™ scintillation vial and radioactivity determined by: addition of 4 mL of Ultima Gold XR liquid scintillant (PerkinElmer), overnight incubation at room temperature and the retained radioactivity determined using a Beckman Coulter LS 6500 Multi-purpose scintillation counter (Beckman Coulter Inc.; Indiana, USA).
Radioligand displacement curves were fitted to the one-site competition binding equation yielding log(Ki) values.

[4] = target: T2, hA1R; assay: cAMP inhibition in CHO-K1-hA1R cells (forskolin co-stimulation); settings: for cAMP levels, co-stimulation with 1 μM forskolin and agonist (Fig. 1biii): individual repeats and mean; for Range hA1R: range of response as percentage of response to 10 μM forskolin

With `OC[C@H]1O[C@@H](n2cnc3c(NC4CCCC4)ncnc32)[C@H](O)[C@@H]1O` [CPA, N^6-Cyclopentyladenosine] the “Range rA3R” value [1] was 68.79 ± 3.67%, the inhibition at 0.1 µM ([2]; Rattus norvegicus, 0.1 uM, individual slices and average, read-out: inhibition of synaptic transmission (fEPSP), concentration-response data (Fig. 1f, g)) was 104% and the IC50 ([2]; fEPSP, rat hippocampal slices, read-out: IC50 inhibition of synaptic transmission) was 11.8 ± 2.7 nM. For the same compound, the “[3H]DPCPX binding, agonist displacement (Fig. 1bii)” value (from here on “[3H]DPCPX binding”) ([3]; Log [Agonist] -4 (printed 100 nM), individual repeat) was 20.2642 and 4.4733 and -15.7273 and -5.192 and 4.0456, the “[3H]DPCPX binding” value ([3]; Log [Agonist] -4 (printed 100 nM), mean) was 1.6 and the “[3H]DPCPX binding” value ([3]; Log [Agonist] -5 (10 nM [sic]), individual repeat) was 11.1387 and 7.285 and -0.8835 and -5.9519 and 7.949. For the same compound, the “[3H]DPCPX binding” value ([3]; Log [Agonist] -5 (10 nM [sic]), mean) was 3.9, the “[3H]DPCPX binding” value ([3]; Log [Agonist] -6) was 33.4844 and 35.0135 and 37.1916 and 34.6828 and 36.5376 and the “[3H]DPCPX binding” value ([3]; Log [Agonist] -6, mean) was 35.4. For the same compound, the “[3H]DPCPX binding” value ([3]; Log [Agonist] -7 (0.1 nM [sic])) was 68.5034 and 65.597 and 37.2069 and 75.7359 and 85.6552, the “[3H]DPCPX binding” value ([3]; Log [Agonist] -7 (0.1 nM [sic]), mean) was 66.5 and the “[3H]DPCPX binding” value ([3]; Log [Agonist] -8 (0.01 nM [sic])) was 82.5188 and 76.3158 and 97.3862 and 99.1923 and 79.3577. The “[3H]DPCPX binding” value ([3]; Log [Agonist] -8 (0.01 nM [sic]), mean) was 87.0, the “[3H]DPCPX binding” value ([3]; Log [Agonist] -9 (0.001 nM [sic])) was 135.427 and 110.895 and 123.979 and 110.925 and 95.1958 and the “[3H]DPCPX binding” value ([3]; Log [Agonist] -9 (0.001 nM [sic]), mean) was 115.3. The “cAMP levels, co-stimulation with 1 μM forskolin and agonist (Fig. 1biii)” value (shortened to “cAMP levels, co-stimulation”) ([4]; Log [Agonist] -6) was 40.1 and 40.118 and 40.1062 and 40.1555 and 40.1419 and 40.1089 and 40.1054 and 40.1072 and 40.1135 and 40.1134 and 40.1344, the “cAMP levels, co-stimulation” value ([4]; Log [Agonist] -7) was 40.4 and 40.3687 and 40.2515 and 40.737 and 40.6042 and 40.2784 and 40.2436 and 40.2615 and 40.3242 and 40.3231 and 40.5303 and the “cAMP levels, co-stimulation” value ([4]; Log [Agonist] -8) was 42.9 and 42.7424 and 41.659 and 45.8766 and 44.7904 and 41.911 and 41.5838 and 41.7525 and 42.336 and 42.3262 and 44.1655. The “cAMP levels, co-stimulation” value ([4]; Log [Agonist] -9) was 57.8 and 57.9585 and 52.2853 and 68.2239 and 65.3823 and 53.7555 and 51.8264 and 52.843 and 56.017 and 55.9674 and 63.4546, the “cAMP levels, co-stimulation” value ([4]; Log [Agonist] -10) was 81.2 and 82.0022 and 77.8788 and 85.9249 and 85.1011 and 79.182 and 77.4265 and 78.3979 and 80.8371 and 80.8046 and 84.4497 and the “cAMP levels, co-stimulation” value ([4]; Log [Agonist] -11) was 88.4 and 88.5187 and 87.9157 and 89.0024 and 88.907 and 88.1183 and 87.8424 and 87.9978 and 88.3592 and 88.3546 and 88.8294. The “cAMP levels, co-stimulation” value ([4]; Log [Agonist] -12) was 89.2835 and 89.2206 and 89.333 and 89.3233 and 89.2419 and 89.2129 and 89.2293 and 89.267 and 89.2665 and 89.3154 and 89.3, the “cAMP levels, co-stimulation” value ([4]; Log [Agonist] -13) was 89.2835 and 89.2206 and 89.333 and 89.3 and the “Range hA1R” value [4] was 48.97 ± 0.7%.

In the case of `OC[C@H]1O[C@@H](n2cnc3c(N[C@@H]4CCC[C@H]4O)ncnc32)[C@H](O)[C@@H]1O` [HOCPA, (2 R,3 R,4 S,5 R)−2-(6-{[(1 R,2 R)−2-hydroxycyclopentyl]amino}−9H-purin-9-yl)−5-(hydroxymethyl)oxolane-3,4-diol], the IC50 ([1]; half-maximal response, cAMP inhibition, read-out: pIC50 rA3R (converted)) is reported as 38.9 nM, the “Range rA3R” value [1] is reported as 68.79 ± 3.70% and the “reduction in fEPSP slope” value ([2]; single experiment, reversed by 8CPT 4 µM) is reported as ~ 80%. The Ki ([3]; displacement of [3H]-DPCPX, CHO-K1-hA1R, read-out: pKi hA1R (converted)) was 1550 nM, the IC50 [4] was 0.832 nM and the “Range hA1R” value [4] was 60.52 ± 1.5%.
